Where “and” joins values, the source holds several entries; their conditions need not be identical. Equal entries are not always repeated. Inconclusive results and toxic doses are left out. No stated cut-off is given here; in the data, active means T/C of 150% or more; inactive means T/C below 125%.
System: L1210 leukemia ip in BDF1 mice, survival T/C
Assay: NCI In Vivo Anticancer Drug Screen. Data for tumor model L1210 Leukemia (intraperitoneal) in B6D2F1 (BDF1) mice
Conditions: endpoint: mean survival time, higher = longer survival
Method in brief: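 Value reflects the ratio of survival in compound-treated mice to survival in vehicle-treated controls, with both groups carrying the same transplanted tumor.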

[1] = dose: 50.0 mg/kg/injection, schedule: Q01DX001 (ip), vehicle: carboxymethylcellulose (CMC)
[2] = dose: 100.0 mg/kg/injection, schedule: Q01DX001 (ip), vehicle: carboxymethylcellulose (CMC)
[3] = dose: 100.0 mg/kg/injection, schedule: Q01DX009 (ip), vehicle: Klucel (hydroxypropylcellulose) (HPC)
[4] = dose: 100.0 mg/kg/injection, schedule: Q01DX009 (ip), vehicle: saline with Tween-80
[5] = dose: 100.0 mg/kg/injection, schedule: Q04DX003 (ip), vehicle: Klucel (hydroxypropylcellulose) (HPC)
[6] = dose: 200.0 mg/kg/injection, schedule: Q01DX001 (ip), vehicle: carboxymethylcellulose (CMC)
[7] = dose: 200.0 mg/kg/injection, schedule: Q01DX009 (ip), vehicle: saline with Tween-80
[8] = dose: 400.0 mg/kg/injection, schedule: Q01DX001 (ip), vehicle: carboxymethylcellulose (CMC)
[9] = dose: 100.0 mg/kg/injection, schedule: Q01DX001 (ip), vehicle: saline
[10] = dose: 200.0 mg/kg/injection, schedule: Q01DX001 (ip), vehicle: saline
[11] = dose: 400.0 mg/kg/injection, schedule: Q01DX001 (ip), vehicle: saline
[12] = dose: 200.0 mg/kg/injection, schedule: Q04DX003 (ip), vehicle: Klucel (hydroxypropylcellulose) (HPC)
[13] = dose: 200.0 mg/kg/injection, schedule: Q01DX009 (ip), vehicle: Klucel (hydroxypropylcellulose) (HPC)
[14] = dose: 400.0 mg/kg/injection, schedule: Q01DX009 (ip), vehicle: Klucel (hydroxypropylcellulose) (HPC)
[15] = dose: 400.0 mg/kg/injection, schedule: Q04DX003 (ip), vehicle: Klucel (hydroxypropylcellulose) (HPC)

Measured: T/C

O=C1N(Cl)C(=O)C(c2ccc(Cl)cc2)(c2ccc(Cl)cc2)N1Cl
inactive: dose: 12.5 mg/kg/injection, schedule: Q01DX009 (ip), vehicle: saline with Tween-80 98 % of control | dose: 25.0 mg/kg/injection, schedule: Q01DX009 (ip), vehicle: Klucel (hydroxypropylcellulose) (HPC) 106 % of control | dose: 25.0 mg/kg/injection, schedule: Q01DX009 (ip), vehicle: saline with Tween-80 96 % of control | dose: 25.0 mg/kg/injection, schedule: Q04DX003 (ip), vehicle: Klucel (hydroxypropylcellulose) (HPC) 113 % of control | [1] 101 % of control | dose: 50.0 mg/kg/injection, schedule: Q01DX009 (ip), vehicle: Klucel (hydroxypropylcellulose) (HPC) 106 % of control | dose: 50.0 mg/kg/injection, schedule: Q01DX009 (ip), vehicle: saline with Tween-80 102 % of control | dose: 50.0 mg/kg/injection, schedule: Q04DX003 (ip), vehicle: Klucel (hydroxypropylcellulose) (HPC) 106 % of control | [2] 108 % of control | [3] 98 % of control | dose: 100.0 mg/kg/injection, schedule: Q01DX009 (ip), vehicle: saline sonified 122 % of control | [4] 106 % of control | [5] 108 % of control | [6] 102 % of control | dose: 200.0 mg/kg/injection, schedule: Q01DX009 (ip), vehicle: saline sonified 93 % of control | [7] 106 % of control | [8] 103 % of control

Cc1ccc(C(=O)c2ccc([N+](=O)[O-])cc2)cc1
inactive: dose: 50.0 mg/kg/injection, schedule: Q01DX001 (ip), vehicle: saline 103 % of control | [9] 101 % of control | [10] 92 % of control | [11] 114 % of control

CN1CCC23CCCCC2C1Cc1ccc(O)cc13 (centres undefined)
inactive: dose: 75.0 mg/kg/injection, schedule: Q01DX001 (ip), vehicle: saline 95 % of control

CS(=O)(=O)OCC1(Br)CC1(c1ccccc1)c1ccccc1 (centres undefined)
inactive: dose: 100.0 mg/kg/injection, schedule: Q01DX001 (ip), vehicle: other 95 % of control | dose: 200.0 mg/kg/injection, schedule: Q01DX001 (ip), vehicle: other 95 % of control | dose: 400.0 mg/kg/injection, schedule: Q01DX001 (ip), vehicle: other 90 % of control

Nc1nc(Cc2cccc3ccccc23)nc(Cc2cccc3ccccc23)n1
inactive: [5] 87 % of control | [12] 92 % of control

O=C(CNC(c1ccccc1)(c1ccccc1)c1ccccc1)OC(c1ccccc1)c1ccccc1
inactive: [4] 86 % of control | dose: 100.0 mg/kg/injection, schedule: Q04DX003 (ip), vehicle: saline sonified 106 % of control | [7] 89 % of control | dose: 200.0 mg/kg/injection, schedule: Q04DX003 (ip), vehicle: saline sonified 92 % of control | dose: 400.0 mg/kg/injection, schedule: Q04DX003 (ip), vehicle: saline sonified 97 % of control

CCCCCCCC(O)CCCC (centres undefined)
inactive: [3] 100 % of control | [5] 95 % of control | [13] 104 % of control | [12] 103 % of control | [14] 104 % of control | [15] 98 % of control

CCS(=O)(=O)c1ccc(C(=O)N=[N+]=[N-])cc1
inactive: [2] 92 % of control | [6] 97 % of control | [8] 105 % of control

CC(CCc1ccc2sc3ccccc3c2c1)C(N)=O (centres undefined)
inactive: [9] 94 % of control | [10] 92 % of control | [11] 94 % of control

CCOC(=O)C(CCP(=O)(OCC)OCC)P(=O)(OCC)OCC (centres undefined)
inactive: dose: 12.5 mg/kg/injection, schedule: Q04DX002 (ip), vehicle: saline 99 % of control | dose: 25.0 mg/kg/injection, schedule: Q04DX002 (ip), vehicle: saline 96 % of control | dose: 50.0 mg/kg/injection, schedule: Q04DX002 (ip), vehicle: saline 115 % of control | [9] 101 % of control | [10] 95 % of control | [11] 98 % of control

CCCCN=C=NCCCN(C)C
inactive: dose: 62.5 mg/kg/injection, schedule: Q04DX003 (ip), vehicle: Klucel (hydroxypropylcellulose) (HPC) 103 % of control | dose: 125.0 mg/kg/injection, schedule: Q04DX003 (ip), vehicle: Klucel (hydroxypropylcellulose) (HPC) 96 % of control | dose: 250.0 mg/kg/injection, schedule: Q04DX003 (ip), vehicle: Klucel (hydroxypropylcellulose) (HPC) 92 % of control

Oc1ccccc1/C=N/Nc1c2ccccc2nc2ccccc12
inactive: [9] 103 % of control | [11] 93 % of control

[Cl][Sn]([CH]1CCCCC1)([CH]1CCCCC1)[CH]1CCCCC1
inactive: dose: 12.5 mg/kg/injection, schedule: Q04DX002 (ip), vehicle: gum acacia 101 % of control | dose: 25.0 mg/kg/injection, schedule: Q04DX002 (ip), vehicle: gum acacia 101 % of control

O=[N+]([O-])c1cc(N(c2ccccc2)c2ccccc2)ccc1Cl
inactive: [2] 97 % of control | [6] 97 % of control | [8] 95 % of control

CCOC(=O)C1CCc2c(ccc3ccccc23)N1 (centres undefined)
inactive: [1] 100 % of control | dose: 50.0 mg/kg/injection, schedule: Q01DX009 (ip), vehicle: carboxymethylcellulose (CMC) 102 % of control and 91 % of control | dose: 50.0 mg/kg/injection, schedule: Q04DX002 (ip), vehicle: carboxymethylcellulose (CMC) 100 % of control and 106 % of control | dose: 50.0 mg/kg/injection, schedule: Q04DX003 (ip), vehicle: carboxymethylcellulose (CMC) 105 % of control | [2] 105 % of control | dose: 100.0 mg/kg/injection, schedule: Q01DX009 (ip), vehicle: carboxymethylcellulose (CMC) 94 % of control and 112 % of control | dose: 100.0 mg/kg/injection, schedule: Q04DX002 (ip), vehicle: carboxymethylcellulose (CMC) 100 % of control and 106 % of control | dose: 100.0 mg/kg/injection, schedule: Q04DX003 (ip), vehicle: carboxymethylcellulose (CMC) 107 % of control | [6] 103 % of control | dose: 200.0 mg/kg/injection, schedule: Q01DX009 (ip), vehicle: carboxymethylcellulose (CMC) 94 % of control and 102 % of control | dose: 200.0 mg/kg/injection, schedule: Q04DX002 (ip), vehicle: carboxymethylcellulose (CMC) 97 % of control and 102 % of control | dose: 200.0 mg/kg/injection, schedule: Q04DX003 (ip), vehicle: carboxymethylcellulose (CMC) 96 % of control

Cc1ccc2[nH]c(C)cc(=O)c2c1
inactive: dose: 2.5 mg/kg/injection, schedule: Q01DX009 (ip), vehicle: saline 109 % of control | dose: 5.0 mg/kg/injection, schedule: Q01DX009 (ip), vehicle: saline 95 % of control | dose: 10.0 mg/kg/injection, schedule: Q01DX001 (ip), vehicle: saline 104 % of control | dose: 10.0 mg/kg/injection, schedule: Q01DX009 (ip), vehicle: saline 106 % of control | dose: 20.0 mg/kg/injection, schedule: Q01DX001 (ip), vehicle: saline 101 % of control | dose: 40.0 mg/kg/injection, schedule: Q01DX001 (ip), vehicle: saline 98 % of control

COc1cccc(/C=C2\SC(=S)NC2=O)c1
inactive: [9] 101 % of control | [10] 95 % of control | [11] 95 % of control

O=[N+]1c2ccccc2N([O-])C2CCCCC21 (centres undefined)
inactive: dose: 100.0 mg/kg/injection, schedule: Q04DX002 (ip), vehicle: Klucel (hydroxypropylcellulose) (HPC) 93 % of control | dose: 200.0 mg/kg/injection, schedule: Q04DX002 (ip), vehicle: Klucel (hydroxypropylcellulose) (HPC) 93 % of control | dose: 400.0 mg/kg/injection, schedule: Q04DX002 (ip), vehicle: Klucel (hydroxypropylcellulose) (HPC) 104 % of control

COc1ccc(Cl)cc1NC(=O)c1cccc(C(=O)Nc2cc(Cl)ccc2OC)c1
inactive: [3] 92 % of control | [5] 94 % of control | [13] 93 % of control | [12] 94 % of control | [14] 104 % of control | [15] 92 % of control

Nc1cccc(OCCOc2cccc(S(=O)(=O)F)c2)c1
inactive: [9] 95 % of control | [10] 93 % of control | [11] 90 % of control

Clc1ccc2c(NC3CCC(NC4CCCCC4)CC3)ccnc2c1 (centres undefined)
inactive: dose: 7.0 mg/kg/injection, schedule: Q01DX Z (ip), vehicle: carboxymethylcellulose (CMC) 102 % of control | dose: 10.0 mg/kg/injection, schedule: Q01DX Z (ip), vehicle: carboxymethylcellulose (CMC) 96 % of control | dose: 16.0 mg/kg/injection, schedule: Q01DX Z (ip), vehicle: carboxymethylcellulose (CMC) 98 % of control

NC(CCCCn1nnc2c(=O)[nH]cnc21)C(=O)O (centres undefined)
inactive: dose: 100.0 mg/kg/injection, schedule: Q04DX003 (ip), vehicle: saline 106 % of control | dose: 200.0 mg/kg/injection, schedule: Q04DX003 (ip), vehicle: saline 103 % of control | dose: 400.0 mg/kg/injection, schedule: Q04DX003 (ip), vehicle: saline 97 % of control
